Target: T1, Enterobacter soli LF7 MarR_Es (Enterobacter soli, UniProt A0AAW8H3I9, A146S)
T1 sequence (A0AAW8H3I9 1-157 A146S): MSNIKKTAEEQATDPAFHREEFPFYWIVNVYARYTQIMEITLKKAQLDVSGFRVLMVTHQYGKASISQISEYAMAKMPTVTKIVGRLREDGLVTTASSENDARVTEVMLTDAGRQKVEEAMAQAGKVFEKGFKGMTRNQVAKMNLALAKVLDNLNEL
Assay: ITC IAA binding to MarR_Es
Settings: 25 °C, IacR, read-out: KD1
Protocol: All ITC measurements were performed at 25 °C using an Auto-ITC200 microcalorimeter (MicroCal/GE Healthcare). The buffer employed was 20 mM HEPES, pH 7.4, 50 mM NaCl and 0.5% dimethly sulfoxide (DMSO) for protein/ligand binding and 20 mM HEPES, pH 7.4 and 300 mM NaCl for DNA/protein binding experiments. For ligand binding experiments, the calorimetry cell (volume 200 ml) was loaded with MarR wild-type, mutant or homologue protein at a concentration of 50 μM. The syringe was loaded with a ligand concentration of 0.5 or 2 mM. […] A typical injection protocol included a single 0.2 μl first injection followed by 20 1.5 μl injections of the syringe sample into the calorimetry cell. The spacing between injections was kept at 180 s and the reference power at 8 μcal s^−1. The data were analysed using Origin for ITC version 7.0 software supplied by the manufacturer and fit well to a one-site binding model. Two independent ITC measurements were performed for each condition.

`O=C(O)Cc1c[nH]c2ccccc12` [IAA, indole-3-acetic acid] was tested, and the Kd was 2910 ± 96 nM.

— publication PMC9613470, “Diverse MarR bacterial regulators of auxin catabolism in the plant microbiome” (Nature Microbiology, 2022)
